Results reported in patent publication US20110046104A1, “AMINOPYRIMIDINES USEFUL AS KINASE INHIBITORS” (VERTEX PHARMACEUTICALS INCORPORATED, priority 2007, published 2011).

Legend:
Aurora-2 (Aurora A) = biological target: T1, Aurora-2 (Aurora A) (Homo sapiens, UniProt O14965); assay: Aurora-2 (Aurora A) inhibition assay, coupled enzyme assay; format: biochemical; settings: 400 μM ATP, 570 μM Kemptide, 40 nM Aurora-2, 30° C.
T1 sequence (O14965 1-403): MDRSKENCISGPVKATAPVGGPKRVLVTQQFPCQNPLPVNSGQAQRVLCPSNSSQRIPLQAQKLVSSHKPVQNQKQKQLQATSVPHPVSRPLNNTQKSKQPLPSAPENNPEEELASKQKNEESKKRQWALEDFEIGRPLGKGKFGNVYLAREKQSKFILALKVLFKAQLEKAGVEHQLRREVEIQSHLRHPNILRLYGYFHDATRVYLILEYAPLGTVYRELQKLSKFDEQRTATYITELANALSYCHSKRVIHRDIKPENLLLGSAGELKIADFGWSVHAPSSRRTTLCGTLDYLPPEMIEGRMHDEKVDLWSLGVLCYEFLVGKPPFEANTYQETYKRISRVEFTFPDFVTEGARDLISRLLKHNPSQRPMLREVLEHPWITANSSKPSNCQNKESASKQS
Procedure: Compounds were screened for their ability to inhibit Aurora-2 using a standard coupled enzyme assay (Fox et al., Protein Sci., (1998) 7, 2249). Assays were carried out in a mixture of 100 mM Hepes (pH7.5), 10 mM MgCl2, 1 mM DTT, 25 mM NaCl, 2.5 mM phosphoenolpyruvate, 300 μM NADH, 30 μg/ml pyruvate kinase and 10 μg/ml lactate dehydrogenase. Final substrate concentrations in the assay were 400 μM ATP (Sigma Chemicals) and 570 μM peptide (Kemptide, American Peptide, Sunnyvale, Calif.). Assays were carried out at 30° C. and in the presence of 40 nM Aurora-2.
An assay stock buffer solution was prepared containing all of the reagents listed above, with the exception of Aurora-2 and the test compound of interest. 55 μl of the stock solution was placed in a 96 well plate followed by addition of 2 μl of DMSO stock containing serial dilutions of the test compound (typically starting from a final concentration of 7.5 μM). The plate was preincubated for 10 minutes at 30° C. and the reaction initiated by addition of 10 μl of Aurora-2. Initial reaction rates were determined with a Molecular Devices SpectraMax Plus plate reader over a 10 minute time course. IC50 and Ki data were calculated from non-linear regression analysis using the Prism software package (GraphPad Prism version 3.0cx for Macintosh, GraphPad Software, San Diego Calif., USA).

Aurora-1 (Aurora B) = Aurora-1 (Aurora B) (Homo sapiens, UniProt Q96GD4); assay: Aurora-1 (Aurora B) inhibition assay (radiometric); format: biochemical; settings: 800 μM [γ-33P]-ATP, Kemptide, 25° C., 3 hours
Sequence of Aurora-1 (Aurora B) (Q96GD4 whole entry): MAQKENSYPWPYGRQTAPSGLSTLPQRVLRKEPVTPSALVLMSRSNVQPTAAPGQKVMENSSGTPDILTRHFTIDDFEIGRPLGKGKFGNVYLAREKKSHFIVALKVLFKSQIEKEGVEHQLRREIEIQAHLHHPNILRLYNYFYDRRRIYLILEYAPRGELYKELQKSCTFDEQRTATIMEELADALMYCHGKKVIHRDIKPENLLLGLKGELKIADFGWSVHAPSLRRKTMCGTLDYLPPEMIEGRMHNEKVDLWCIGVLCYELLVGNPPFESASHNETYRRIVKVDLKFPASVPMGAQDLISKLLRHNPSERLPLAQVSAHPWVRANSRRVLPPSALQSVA
Procedure: An assay buffer solution was prepared which consisted of 25 mM HEPES (pH 7.5), 10 mM MgCl2, 0.1% BSA and 10% glycerol. A 22 nM Aurora-B solution, also containing 1.7 mM DTT and 1.5 mM Kemptide (LRRASLG), was prepared in assay buffer. To 22 μL of the Aurora-B solution, in a 96-well plate, was added 2 μl of a compound stock solution in DMSO and the mixture allowed to equilibrate for 10 minutes at 25° C. The enzyme reaction was initiated by the addition of 16 μl stock [γ-^33P]-ATP solution (˜20 nCi/μL) prepared in assay buffer, to a final assay concentration of 800 μM. The reaction was stopped after 3 hours by the addition of 16 μL 500 mM phosphoric acid and the levels of ^33P incorporation into the peptide substrate were determined by the following method.
A phosphocellulose 96-well plate (Millipore, Cat no. MAPHNOB50) was pre-treated with 100 μL of a 100 mM phosphoric acid prior to the addition of the enzyme reaction mixture (40 μL). The solution was left to soak on to the phosphocellulose membrane for 30 minutes and the plate subsequently washed four times with 200 μL of a 100 mM phosphoric acid. To each well of the dry plate was added 30 μL of Optiphase ‘SuperMix’ liquid scintillation cocktail (Perkin Elmer) prior to scintillation counting (1450 Microbeta Liquid Scintillation Counter, Wallac). Levels of non-enzyme catalyzed background radioactivity were determined by adding 16 μL of the 500 mM phosphoric acid to control wells, containing all assay components (which acts to denature the enzyme), prior to the addition of the [γ-^33P]-ATP solution. Levels of enzyme catalyzed ^33P incorporation were calculated by subtracting mean background counts from those measured at each inhibitor concentration. For each Ki determination 8 data points, typically covering the concentration range 0-10 μM compound, were obtained in duplicate (DMSO stocks were prepared from an initial compound stock of 10 mM with subsequent 1:2.5 serial dilutions). Ki values were calculated from initial rate data by non-linear regression using the Prism software package (Prism 3.0, Graphpad Software, San Diego, Calif.).

Ki (Aurora-2 (Aurora A)) [nM]	Ki (Aurora-1 (Aurora B)) [nM]	SMILES
33	> 1500	O=C(CC(F)(F)F)Nc1ccc(Sc2nc(Nc3ncns3)cc(N3CC(F)(C4CC4)C3)n2)cc1 [Compound I-1, N-(4-(4-(1,2,4-thiadiazol-5-ylamino)-6-(3-cyclopropyl-3-fluoroazetidin-1-yl)pyrimidin-2-ylthio)phenyl)-3,3,3-trifluoropropanamide]
	> 1500	O=C(CC(F)(F)F)Nc1ccc(Sc2nc(Nc3nnc[nH]3)cc(N3CC(F)(C4CC4)C3)n2)cc1 [Compound I-2, N-(4-(4-(4H-1,2,4-Triazol-3-ylamino)-6-(3-cyclopropyl-3-fluoroazetidin-1-yl)pyrimidin-2-ylthio)phenyl)-3,3,3-trifluoropropanamide]
	< 500	O=C(CC(F)(F)F)Nc1ccc(Sc2nc(Nc3ccccn3)cc(N3CC(F)(C4CC4)C3)n2)cc1 [Compound I-3, N-(4-(4-(3-Cyclopropyl-3-fluoroazetidin-1-yl)-6-(pyridin-2-ylamino)pyrimidin-2-ylthio)phenyl)-3,3,3-trifluoropropanamide]
	> 1500	O=C(Nc1ccc(Sc2nc(Nc3ncns3)cc(N3CC(F)(C4CC4)C3)n2)cc1)C1CC1 [Compound I-4, N-(4-(4-(1,2,4-Thiadiazol-5-ylamino)-6-(3-cyclopropyl-3-fluoroazetidin-1-yl)pyrimidin-2-ylthio)phenyl)cyclopropanecarboxamide]
	< 500	O=C(Nc1ccc(Sc2nc(Nc3ncns3)cc(N3CCC3)n2)cc1)c1ccccc1Cl [Compound I-7, N-(4-(4-(1,2,4-Thiadiazol-5-ylamino)-6-(azetidin-1-yl)pyrimidin-2-ylthio)phenyl)-2-chlorobenzamide]
	> 1500	O=C(NCC(F)(F)F)c1ccc(Sc2nc(Nc3ncns3)cc(N3CC(F)(C4CC4)C3)n2)cc1 [Compound I-8, 4-(4-(1,2,4-Thiadiazol-5-ylamino)-6-(3-cyclopropyl-3-fluoroazetidin-1-yl)pyrimidin-2-ylthio)-N-(2,2,2-trifluoroethyl)benzamide]
	> 1500	O=C(CC(F)(F)F)Nc1ccc(Sc2nc(Nc3ccccn3)cc(N3CC[C@H](F)C3)n2)cc1 [Compound I-9, (S)-3,3,3-Trifluoro-N-(4-(4-(3-fluoropyrrolidin-1-yl)-6-(pyridin-2-ylamino)pyrimidin-2-ylthio)phenyl)propanamide]
	< 500	O=C(CC(F)(F)F)Nc1ccc(Sc2nc(Nc3nnc[nH]3)cc(N3CC[C@H](F)C3)n2)cc1 [Compound I-10, (S)—N-(4-(4-(4H-1,2,4-Triazol-3-ylamino)-6-(3-fluoropyrrolidin-1-yl)pyrimidin-2-ylthio)phenyl)-3,3,3-trifluoropropanamide]
	> 1500	O=C(CC(F)(F)F)Nc1ccc(Sc2nc(Nc3ncns3)cc(N3CC[C@H](F)C3)n2)cc1 [Compound I-11, (S)—N-(4-(4-(1,2,4-Thiadiazol-5-ylamino)-6-(3-fluoropyrrolidin-1-yl)pyrimidin-2-ylthio)phenyl)-3,3,3-trifluoropropanamide]
